How the values were obtained:
[1] = system: mixed intestinal microflora (cecum fluid); test: Swine in vitro model; conditions: one level, up to 166.67 ppm; 4-5 h
Protocol: A swine in vitro model was used to characterize AAD-609 antibiotics as potential feed additives in swine and poultry. Mixed intestinal microflora were obtained from ileally-cannulated pigs. Virginiamycin, carbadox, AAD-216 and its components, and AAD-609 Complex (containing less than 5% AAD-216 antibiotics) were tested at one level. […] Glucose (GLU) was spared from microbial degradation. Volatile fatty acids (TOTAL) were the major end-product of microbial metabolism while lactic acid production were reduced. […] Since AAD-609 and AAD-216 give similar in vitro results, it is expected that AAD-609 has similar growth-promoting activity in monogastric animals. Also, the in vitro activity of AAD-609 is similar to the activity previously observed with bacitracin in this model.
The swine in vitro model was carried out by incubating 1.5 ml of cecum fluid, from a swine fed normal rations, mixed with 1.5 ml of a nutrient broth (3 mg casein hydrolysate, 30 mg maltose, 1.25 mg urea, 0.5 mg lysine, and 30 mg cellobiose) and with up to 166.67 parts per million of a selected growth promotant at 39° C., with oscillation, for about 4-5 hours. Results, percentage of control, are reported in the following table in which all abbreviations are as above except that LLA means L-lactate and ETOH means ethanol.

[2] = system: rumen fermentation (strained rumen fluid); test: Rumen in vitro model; parameters: species or system steer; conditions: for AAN (alpha amino nitrogen) / AMO (ammonia nitrogen) / LYS (lysine): 6 h; for % PR (percent propionate) / ACE (acetate) / BUT (butyrate) / ETOH (ethanol) / IBU (isobutyrate) / IVA (isovalerate) / PRO (propionate) / TOTAL (total volatile fatty acids) / VAL: 24 h
Protocol: The AAD-609 antibiotics were characterized in a rumen in vitro model to assess their potential as feed additives for ruminants. […] Specifically, strained rumen fluid (10 ml) obtained from a fistulated steer receiving a roughage ration, was mixed with 10 ml of nutrient broth (20 mg casein hydrolysate, 100 mg maltose, 15 mg urea, 400 mg solka floc (cellulose), 100 mg cellobiose and 100 mg starch) and with a selected growth promotant and incubated at 39° C., with oscillation, for 24 hours. […] Measurement of AMO, LYS and AAN was done with a sample taken from the incubation flask after 6 hours.

SMILES: CNC1C(=O)NC2C(=O)NC(C(=O)NC3C(=O)NC4C(=O)NC(C(=O)NC(C(=O)O)c5cc(O)cc(OC6OC(CO)C(O)C(O)C6O)c5-c5cc4ccc5O)C(O)c4cc(Cl)c(c(Cl)c4)Oc4cc3cc(c4OC3OC(C(=O)O)C(O)C(O)C3NC(=O)CCCCCCCC(C)C)Oc3ccc(cc3Cl)C2O)c2cc(cc(O)c2Cl)Oc2cc1ccc2O (stereo not drawn) [AAD-216 B]
- % PR (percent propionate) [1]: 119 % of control
- ACE (acetate) [1]: 217 % of control
- BUT (butyrate) [1]: 154 % of control
- ETOH (ethanol) [1]: 104 % of control
- GLU (glucose) [1]: 180 % of control
- IBU (isobutyrate) [1]: 0 % of control
- IVA (isovalerate) [1]: 0 % of control
- LLA (L-lactate) [1]: 2 % of control
- LYS (lysine) [1]: 25 % of control
- PRO (propionate) [1]: 305 % of control
- TOTAL (total volatile fatty acids) [1]: 257 % of control
- VAL [1]: 0 % of control
- AAN (alpha amino nitrogen) ([2]; 0.50 ppm): 121 % of control
- AMO (ammonia nitrogen) ([2]; 0.50 ppm): 96 % of control
- LYS (lysine) ([2]; 0.50 ppm): 96 % of control
- % PR (percent propionate) ([2]; 0.50 ppm): 104 % of control
- ACE (acetate) ([2]; 0.50 ppm): 107 % of control
- BUT (butyrate) ([2]; 0.50 ppm): 97 % of control
- ETOH (ethanol) ([2]; 0.50 ppm): 0 % of control
- IBU (isobutyrate) ([2]; 0.50 ppm): 108 % of control
- IVA (isovalerate) ([2]; 0.50 ppm): 94 % of control
- PRO (propionate) ([2]; 0.50 ppm): 108 % of control
- TOTAL (total volatile fatty acids) ([2]; 0.50 ppm): 103 % of control
- VAL ([2]; 0.50 ppm): 101 % of control
- AAN (alpha amino nitrogen) ([2]; 5.00 ppm): 140 % of control
- AMO (ammonia nitrogen) ([2]; 5.00 ppm): 93 % of control
- LYS (lysine) ([2]; 5.00 ppm): 120 % of control
- % PR (percent propionate) ([2]; 5.00 ppm): 141 % of control
- ACE (acetate) ([2]; 5.00 ppm): 106 % of control
- BUT (butyrate) ([2]; 5.00 ppm): 88 % of control
- ETOH (ethanol) ([2]; 5.00 ppm): 0 % of control
- IBU (isobutyrate) ([2]; 5.00 ppm): 95 % of control
- IVA (isovalerate) ([2]; 5.00 ppm): 67 % of control
- PRO (propionate) ([2]; 5.00 ppm): 153 % of control
- TOTAL (total volatile fatty acids) ([2]; 5.00 ppm): 108 % of control
- VAL ([2]; 5.00 ppm): 86 % of control
- AAN (alpha amino nitrogen) ([2]; 50.00 ppm): 178 % of control
- AMO (ammonia nitrogen) ([2]; 50.00 ppm): 107 % of control
- LYS (lysine) ([2]; 50.00 ppm): 132 % of control
- % PR (percent propionate) ([2]; 50.00 ppm): 144 % of control
- ACE (acetate) ([2]; 50.00 ppm): 103 % of control
- BUT (butyrate) ([2]; 50.00 ppm): 98 % of control
- ETOH (ethanol) ([2]; 50.00 ppm): 0 % of control
- IBU (isobutyrate) ([2]; 50.00 ppm): 123 % of control
- IVA (isovalerate) ([2]; 50.00 ppm): 111 % of control
- PRO (propionate) ([2]; 50.00 ppm): 159 % of control
- TOTAL (total volatile fatty acids) ([2]; 50.00 ppm): 110 % of control
- VAL ([2]; 50.00 ppm): 28 % of control

SMILES: CNC1C(=O)NC2C(=O)NC(C(=O)NC3C(=O)NC4C(=O)NC(C(=O)NC(C(=O)O)c5cc(O)cc(OC6OC(CO)C(O)C(O)C6O)c5-c5cc4ccc5O)C(O)c4cc(Cl)c(c(Cl)c4)Oc4cc3cc(c4OC3OC(C(=O)O)C(O)C(O)C3NC(=O)CCCCCCCCC(C)C)Oc3ccc(cc3Cl)C2O)c2cc(cc(O)c2Cl)Oc2cc1ccc2O (stereo not drawn) [AAD-216 C]
- % PR (percent propionate) [1]: 127 % of control
- ACE (acetate) [1]: 175 % of control
- BUT (butyrate) [1]: 105 % of control
- ETOH (ethanol) [1]: 0 % of control
- GLU (glucose) [1]: 181 % of control
- IBU (isobutyrate) [1]: 0 % of control
- IVA (isovalerate) [1]: 0 % of control
- LLA (L-lactate) [1]: 2 % of control
- LYS (lysine) [1]: 29 % of control
- PRO (propionate) [1]: 281 % of control
- TOTAL (total volatile fatty acids) [1]: 221 % of control
- VAL [1]: 0 % of control
- AAN (alpha amino nitrogen) ([2]; 0.50 ppm): 96 % of control
- AMO (ammonia nitrogen) ([2]; 0.50 ppm): 99 % of control
- LYS (lysine) ([2]; 0.50 ppm): 78 % of control
- % PR (percent propionate) ([2]; 0.50 ppm): 105 % of control
- ACE (acetate) ([2]; 0.50 ppm): 94 % of control
- BUT (butyrate) ([2]; 0.50 ppm): 101 % of control
- ETOH (ethanol) ([2]; 0.50 ppm): 0 % of control
- IBU (isobutyrate) ([2]; 0.50 ppm): 123 % of control
- IVA (isovalerate) ([2]; 0.50 ppm): 123 % of control
- PRO (propionate) ([2]; 0.50 ppm): 105 % of control
- TOTAL (total volatile fatty acids) ([2]; 0.50 ppm): 100 % of control
- VAL ([2]; 0.50 ppm): 102 % of control
- AAN (alpha amino nitrogen) ([2]; 5.00 ppm): 136 % of control
- AMO (ammonia nitrogen) ([2]; 5.00 ppm): 98 % of control
- LYS (lysine) ([2]; 5.00 ppm): 102 % of control
- % PR (percent propionate) ([2]; 5.00 ppm): 148 % of control
- ACE (acetate) ([2]; 5.00 ppm): 96 % of control
- BUT (butyrate) ([2]; 5.00 ppm): 83 % of control
- ETOH (ethanol) ([2]; 5.00 ppm): 0 % of control
- IBU (isobutyrate) ([2]; 5.00 ppm): 86 % of control
- IVA (isovalerate) ([2]; 5.00 ppm): 56 % of control
- PRO (propionate) ([2]; 5.00 ppm): 148 % of control
- TOTAL (total volatile fatty acids) ([2]; 5.00 ppm): 100 % of control
- VAL ([2]; 5.00 ppm): 51 % of control
- AAN (alpha amino nitrogen) ([2]; 50.00 ppm): 166 % of control
- AMO (ammonia nitrogen) ([2]; 50.00 ppm): 106 % of control
- LYS (lysine) ([2]; 50.00 ppm): 144 % of control
- % PR (percent propionate) ([2]; 50.00 ppm): 149 % of control
- ACE (acetate) ([2]; 50.00 ppm): 98 % of control
- BUT (butyrate) ([2]; 50.00 ppm): 88 % of control
- ETOH (ethanol) ([2]; 50.00 ppm): 0 % of control
- IBU (isobutyrate) ([2]; 50.00 ppm): 111 % of control
- IVA (isovalerate) ([2]; 50.00 ppm): 87 % of control
- PRO (propionate) ([2]; 50.00 ppm): 154 % of control
- TOTAL (total volatile fatty acids) ([2]; 50.00 ppm): 104 % of control
- VAL ([2]; 50.00 ppm): 30 % of control

From patent US4694069A, “Kibdelosporangium aridum SK&F-AAD-609” (SmithKline Beckman Corporation, priority 1985, dated 1987)
